Values of other authors, collected in patent US8771310B2, “Anti-no-reflow guide wire for vascular interventional procedures” (Adenopaint, LLC, priority 2007, dated 2014).

What was measured:
[1] = tested on: patients with stable and unstable angina; settings: intracoronary infusion or bolus via guide catheter prior to procedure; 24 hours after PCI
[2] = tested on: patients with STEMI; settings: large intravenous doses
[3] = tested on: patients undergoing PCI; settings: preloading 600 mg
[4] = tested on: patients undergoing PCI of SVGs; settings: PCI of degenerated SVGs

For `Nc1ncnc2c1ncn2[C@@H]1O[C@H](CO)[C@@H](O)[C@H]1O` [adenosine], the “rise in CK-MB and Troponin after PCI” value [1] is given as “significantly attenuated the rise” and the “cardioprotection with reperfusion therapies” value [2] is given as “cardioprotective affects”.

In the case of `COC(=O)[C@H](c1ccccc1Cl)N1CCc2sccc2C1` [clopidogrel], the “cell necrosis after PCI” value [3] is listed as “reduced cell necrosis”.

B1: abciximab: IIb/IIIa platelet inhibitor (antibody, chains of the INN, looked up, V domains shown)
VH: EVQLQQSGTVLARPGASVKMSCEASGYTFTNYWMHWVKQRPGQGLEWIGAIYPGNSDTSYIQKFKGKAKLTAVTSTTSVYMELSSLTNEDSAVYYCTLYDGYYVFAYWGQGTLVTVSA
VL: EIVLTQSPVTLSVTPGDSVSLSCRASRDISNNLHWFQQTSHESPRLLIKYASQSMSGIPSRFSGSGSGTDFTLSINSVETEDFGMYFCQQTNSWPYTFGGGTKLEIK
modifications: Fab
In the case of B1, the “MACE at thirty days” value [4] is listed as “failed to reduce MACE at thirty days”.
